Assay results: patent US9169241B2, “Quinolinyloxyphenylsulfonamides” (Max-Planck-Gesellschaft Zur Forderung der Wissenschaften …, priority 2009, dated 2015)
Like-named read-outs stand apart in the source and are kept apart here.

What was measured:
viable cells in culture = assay: Cell viability assay at 10 μM (CellTiter-Glo, Table VII); format: cell-based; settings: compound 10 μM, 72 h;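 note: graded A 0-20%; B 21-40%; C 41-60%; D over 60% viable cells relative to DMSO control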
Method: (§1) The CellTiter-Glo® Luminescent Cell Viability Assay (Promega Corporation. Madison, Wis., USA) is method a determining the number of viable cells in culture based on quantification of the ATP being present which is an indicator of metabolically active cells was used according to manufacturers protocol. In detail the assay was performed in a 96 well format were 1000 cells/well were incubated with compound at concentration 10 μM as well as DMSO control for 72 h in 100 μl cell culture medium. Percentage of inhibition was calculated compared to ATP amount of DMSO control.

Hs578T [1] = assay: Matrigel outgrowth assay/branching assay; format: cell-based; settings: Homo sapiens, Hs-578T; HS578T cell line; Table Ib; read-out: Total branching inhibition in Matrigel HS578T
Method: The Matrigel outgrowth assay is based on the ability of tumor cell to penetrate a solid gel of extracellular matrix proteins mimicking the metastasis formation in vivo. While cells with low invasive potential appear as roundish cell or cell cluster, cells with high invasive potential penetrate the Matrigel and form polymorphic structures. In detail 65 μl of Matrigel matrix (Matrigel™ Matrix, BD Biosciences, Bedford, Mass., USA) with a concentration of 3 mg/ml have been polymerized in 96 well plates for 1 h at 37° C. Subsequently 5000 cell/well were seeded into each well containing cell culture medium and indicated compound with concentrations of 3.125 μM, 1.56 μM and 0.78 μM as well as DMSO control. After 48 h, 72 h and 96 h images of cell were taken on an inverted microscope using a 5× objective (Zeiss Axiovert S100 microscope Carl Zeiss UK, Welwyn Garden City, UK). Only compound concentrations were total branching inhibition was evident were accounted as positive. Method was used as previously described, with some modifications (Thompson E W, et al. Association of increased basement membrane invasiveness with absence of estrogen receptor and expression of vimentin in human breast cancer cell lines. J Cell Physiol 1992; 150:534-44).

Hs578T [2] = assay: Cell vitality assay (ATP assay, CellTiter-Glo); format: cell-based; settings: Homo sapiens, Hs-578T; HS578T cell line, 72 h; Table Ib; read-out: IC50 ATP-Assay HS578T after 72 h
Method: as §1, with “manufacturers protocol,” for “manufacturers protocol.”, “with indicated” for “with”, “concentration of 12.5 μM, 6.25 μM, 3.125 μM, 1.56 μM, 0.78 μM, 0.39 μM, 0.195” for “concentration 10”, “medium. IC50 values were calculated as 50%” for “medium. Percentage”, “of ATP amount” for “of inhibition was calculated”, “to” for “to ATP amount of”
Protocol for the CellTiter-Glo® Luminescent Cell Viability Assay • 1. Prepare opaque-walled multiwell plates with mammalian cells in culture medium, 100 μl per well for 96-well plates • 2. Prepare control wells containing medium without cells to obtain a value for background luminescence. • 3. Add the compound to be tested to experimental wells, and incubate according to culture protocol. • 4. Equilibrate the plate and its contents at room temperature for approximately 30 minutes. • 5. Add a volume of CellTiter-Glo® Reagent (Promega Corporation. Madison, Wis.) equal to the volume of cell culture medium present in each well. • 6. Mix contents for 2 minutes on an orbital shaker to induce cell lysis. • 7. Allow the plate to incubate at room temperature for 10 minutes to stabilize luminescent signal. • 8. Record luminescence on Microplate Luminometer LB96V (Berthold Tchnologies, Bad Wildbad, Germany). An integration time of 0.1 and 1 second per well

Hs578T [3] = assay: Wound healing migration assay; format: cell-based; settings: Homo sapiens, Hs-578T; HS578T cell line; Table Ib
Method: This method mimics cell migration during wound healing in vivo. The basic steps involve creating a “wound” in a cell monolayer, capturing the images at the beginning and at regular intervals during cell migration to close the wound, and comparing the images to quantify the migration rate of the cells. In detail, 150000 cell/24 well have been seeded and allowed to form a monolayer overnight. Subsequently a “wound” or “scratch” has been performed with a 1000 μl pipette tip. The STDV of wound size is normally below 10% at time point t0. The assay was stopped by fixation with 0.05% Crystal violet/20% methanol when control scratches were closed. The assay was terminated between 48 h and 72 h depending on the migration potential of the indicated cell line. The “wounds” were visualized with a Zeiss Axiovert S100 microscope (Carl Zeiss UK, Welwyn Garden City, UK). The tested compounds were used at 12.5 μM, 6.25, 3.125 μM and DMSO control. IC50 values have been calculated as 50% wound size in between t0 and t48 or t72.

[4] = Homo sapiens, HCT-116, HCT116 def, read-out: percentage (%) of viable cells HCT 116def
[5] = Homo sapiens, HCT-116, HCT116 wt, read-out: percentage (%) of viable cells HCT 116wt
[6] = Homo sapiens, HT-29, HT29, read-out: percentage (%) of viable cells HT29
[7] = Homo sapiens, NCI-H358, H358, read-out: percentage (%) of viable cells H358
[8] = Homo sapiens, NCI-H1650, H1650, read-out: percentage (%) of viable cells H1650
[9] = Homo sapiens, NCI-H1666, H1666, read-out: percentage (%) of viable cells H1666
[10] = Homo sapiens, NCI-H1975, H1975, read-out: percentage (%) of viable cells H1975
[11] = Homo sapiens, NCI-H1993, H1993, read-out: percentage (%) of viable cells H1993
[12] = Homo sapiens, A549, read-out: percentage (%) of viable cells A549
[13] = Homo sapiens, HCC827, read-out: percentage (%) of viable cells HCC827
[14] = Homo sapiens, SW480, read-out: percentage (%) of viable cells SW480
[15] = RKO, read-out: percentage (%) of viable cells RKO

## COc1cc2c(Oc3ccc(NS(=O)(=O)c4cccc(-c5ccccc5)c4)cc3F)ccnc2cc1OCCCN1CCN(C)CC1 [Example 13, Biphenyl-3-sulfonic acid (3-fluoro-4-{6-methoxy-7-[3-(4-methyl-piperazin-1-yl)-propoxy]-quinolin-4-yloxy}-phenyl)-amide]
other
  melting point: 190 to 191 °C
Viable cells in culture; [4]
  viability at 10 µM: 0 to 20%
Viable cells in culture; [5]
  viability at 10 µM: 0 to 20%
Viable cells in culture; [6]
  viability at 10 µM: 0 to 20%
Viable cells in culture; [7]
  viability at 10 µM: 0 to 20%
Viable cells in culture; [8]
  viability at 10 µM: 21 to 40%
Viable cells in culture; [9]
  viability at 10 µM: 0 to 20%
Viable cells in culture; [10]
  viability at 10 µM: 0 to 20%
Viable cells in culture; [11]
  viability at 10 µM: 0 to 20%
Viable cells in culture; [12]
  viability at 10 µM: 21 to 40%
Viable cells in culture; [13]
  viability at 10 µM: 0 to 20%
Viable cells in culture; [14]
  viability at 10 µM: 0 to 20%
Viable cells in culture; [15]
  viability at 10 µM: 0 to 20%

## COc1cc2c(Oc3ccc(NS(=O)(=O)c4ccccc4Br)cc3F)ccnc2cc1OCCCN1CCN(C)CC1 [Example 19, 2-Bromo-N-(3-fluoro-4-{6-methoxy-7-[3-(4-methyl-piperazin-1-yl)-propoxy]-quinolin-4-yloxy}-phenyl)-benzenesulfonamide]
other
  melting point: 98 to 101 °C
Viable cells in culture; [4]
  viability at 10 µM: 21 to 40%
Viable cells in culture; [5]
  viability at 10 µM: 0 to 20%
Viable cells in culture; [6]
  viability at 10 µM: 0 to 20%
Viable cells in culture; [7]
  viability at 10 µM: 0 to 20%
Viable cells in culture; [8]
  viability at 10 µM: 21 to 40%
Viable cells in culture; [9]
  viability at 10 µM: 21 to 40%
Viable cells in culture; [10]
  viability at 10 µM: 21 to 40%
Viable cells in culture; [11]
  viability at 10 µM: 0 to 20%
Viable cells in culture; [12]
  viability at 10 µM: 21 to 40%
Viable cells in culture; [13]
  viability at 10 µM: 21 to 40%
Viable cells in culture; [14]
  viability at 10 µM: 0 to 20%
Viable cells in culture; [15]
  viability at 10 µM: 0 to 20%

## COc1cc2c(Oc3ccc(NS(=O)(=O)c4cc(Cl)ccc4Cl)cc3F)ccnc2cc1OCCCN1CCN(C)CC1 [Example 20, 2,5-Dichloro-N-(3-fluoro-4-{6-methoxy-7-[3-(4-methyl-piperazin-1-yl)-propoxy]-quinolin-4-yloxy}-phenyl)-benzenesulfonamide]
other
  melting point: 134 to 136 °C
Viable cells in culture; [4]
  viability at 10 µM: 21 to 40%
Viable cells in culture; [5]
  viability at 10 µM: 0 to 20%
Viable cells in culture; [6]
  viability at 10 µM: 0 to 20%
Viable cells in culture; [7]
  viability at 10 µM: 0 to 20%
Viable cells in culture; [8]
  viability at 10 µM: 21 to 40%
Viable cells in culture; [9]
  viability at 10 µM: 21 to 40%
Viable cells in culture; [10]
  viability at 10 µM: 21 to 40%
Viable cells in culture; [11]
  viability at 10 µM: 21 to 40%
Viable cells in culture; [12]
  viability at 10 µM: > 60%
Viable cells in culture; [13]
  viability at 10 µM: 41 to 60%
Viable cells in culture; [14]
  viability at 10 µM: 0 to 20%
Viable cells in culture; [15]
  viability at 10 µM: 0 to 20%

## COc1cc2c(Oc3ccc(NS(=O)(=O)c4cccc(F)c4)cc3F)ccnc2cc1OCCCN1CCN(C)CC1 [Example 22]
other
  melting point: 82 to 84 °C
Viable cells in culture; [4]
  viability at 10 µM: 21 to 40%
Viable cells in culture; [5]
  viability at 10 µM: 21 to 40%
Viable cells in culture; [6]
  viability at 10 µM: 0 to 20%
Viable cells in culture; [7]
  viability at 10 µM: 0 to 20%
Viable cells in culture; [8]
  viability at 10 µM: 21 to 40%
Viable cells in culture; [9]
  viability at 10 µM: 21 to 40%
Viable cells in culture; [10]
  viability at 10 µM: 0 to 20%
Viable cells in culture; [11]
  viability at 10 µM: 0 to 20%
Viable cells in culture; [12]
  viability at 10 µM: > 60%
Viable cells in culture; [13]
  viability at 10 µM: 21 to 40%
Viable cells in culture; [14]
  viability at 10 µM: 0 to 20%
Viable cells in culture; [15]
  viability at 10 µM: 21 to 40%

## COc1cc2c(Oc3ccc(NS(=O)(=O)c4ccc(F)c(Cl)c4)cc3F)ccnc2cc1OCCCN1CCN(C)CC1 [Example 23, 3-Chloro-4-fluoro-N-(3-fluoro-4-{6-methoxy-7-[3-(4-methyl-piperazin-1-yl)-propoxy]-quinolin-4-yloxy}-phenyl)-benzenesulfonamide]
other
  melting point: 108 to 110 °C
Viable cells in culture; [4]
  viability at 10 µM: 0 to 20%
Viable cells in culture; [5]
  viability at 10 µM: 0 to 20%
Viable cells in culture; [6]
  viability at 10 µM: 0 to 20%
Viable cells in culture; [7]
  viability at 10 µM: 0 to 20%
Viable cells in culture; [8]
  viability at 10 µM: 21 to 40%
Viable cells in culture; [9]
  viability at 10 µM: 21 to 40%
Viable cells in culture; [10]
  viability at 10 µM: 0 to 20%
Viable cells in culture; [11]
  viability at 10 µM: 0 to 20%
Viable cells in culture; [12]
  viability at 10 µM: 41 to 60%
Viable cells in culture; [13]
  viability at 10 µM: 21 to 40%
Viable cells in culture; [14]
  viability at 10 µM: 0 to 20%
Viable cells in culture; [15]
  viability at 10 µM: 0 to 20%

## CCOC(=O)COc1cc2nccc(Oc3ccc(NS(=O)(=O)c4ccccc4F)cc3F)c2cc1OC [Example 92, {4-[2-Fluoro-4-(2-fluoro-benzenesulfonylamino)-phenoxy]-6-methoxy-quinolin-7-yloxy}-acetic acid ethyl ester]
other
  melting point: 87 to 89 °C
Hs578T [1]
  IC50: 10 to 25 µM
Hs578T [2]
  IC50: ≤ 12.5 µM
Hs578T [3]
  IC50: 12.5 to 50 µM

## COc1cc2c(Oc3ccc(NS(=O)(=O)c4ccccc4C(F)(F)F)cc3F)ccnc2cc1OCCCNC(=O)OC(C)(C)C [Example 120, (3-{4-[2-Fluoro-4-(2-trifluoromethyl-benzenesulfonylamino)-phenoxy]-6-methoxy-quinolin-7-yloxy}-propyl)-carbamic acid tert-butyl ester]
other
  melting point: 80 to 82 °C
Hs578T [1]
  IC50: 10 to 25 µM
Hs578T [2]
  IC50: 12.5 to 50 µM
Hs578T [3]
  IC50: 12.5 to 50 µM

## COc1cc2c(Oc3ccc(NS(=O)(=O)c4cc(F)ccc4F)cc3F)ccnc2cc1OCCCNC(=O)OC(C)(C)C [Example 121, (3-{4-[4-(2,5-Difluoro-benzenesulfonylamino)-2-fluoro-phenoxy]-6-methoxy-quinolin-7-yloxy}-propyl)-carbamic acid tert-butyl ester]
other
  melting point: 115 to 118 °C
Hs578T [1]
  IC50: 10 to 25 µM
Hs578T [2]
  IC50: 12.5 to 50 µM
Hs578T [3]
  IC50: 12.5 to 50 µM

## COc1cc2c(Oc3cccc(NS(=O)(=O)c4c(F)cccc4F)c3)ccnc2cc1OCCCN1CCN(C)CC1 [Example 125, 2,6-Difluoro-N-(3-{6-methoxy-7-[3-(4-methyl-piperazin-1-yl)-propoxy]-quinolin-4-yloxy}-phenyl)-benzenesulfonamide]
other
  melting point: 171 to 172 °C
Hs578T [1]
  IC50: 10 to 25 µM
Hs578T [2]
  IC50: ≤ 12.5 µM
Hs578T [3]
  IC50: ≤ 12.5 µM

## COc1cc2c(Oc3ccc(NS(=O)(=O)c4cnc(C)[nH]4)cc3F)ccnc2cc1OCCCN1CCOCC1 [Example 169, 2-Methyl-3H-imidazole-4-sulfonic acid {3-fluoro-4-[6-methoxy-7-(3-morpholin-4-yl-propoxy)-quinolin-4-yloxy]-phenyl}-amide]
Hs578T [1]
  IC50: 10 to 25 µM
Hs578T [2]
  IC50: 12.5 to 50 µM
Hs578T [3]
  IC50: 12.5 to 50 µM

## COc1cc2c(Oc3cc(NS(=O)(=O)c4cc(F)ccc4F)ccc3F)ccnc2cc1OCCCN1CCC(C)CC1 [Example 187, 2,5-Difluoro-N-(4-fluoro-3-{6-methoxy-7-[3-(4-methyl-piperidin-1-yl)-propoxy]-quinolin-4-yloxy}-phenyl)-benzenesulfonamide]
Hs578T [1]
  IC50: ≤ 10 µM
Hs578T [2]
  IC50: ≤ 12.5 µM
Hs578T [3]
  IC50: ≤ 12.5 µM
